Results taken from US11225507B2, “Conformation switchable antimicrobial peptides and methods of using the same” (priority 2017, dated 2022).

What was measured:
[1] = Circular dichroism (CD) secondary structure of polypeptides at different pH; assay type: physicochemical; details: pH 7.4 or 3.0
Protocol: The secondary structure of the polypeptides at different pH value was then investigated by circular dichroism (CD). […] Distortion of helical conformation was noted when the pH was adjusted back to neutral (FIG. 1C).
The MALLS detector was calibrated using pure toluene and can be used for the determination of the absolute molecular weights (MWs). The MWs of polymers were determined based on the dn/dc value of each polymer sample calculated offline by using the internal calibration system processed by the ASTRA V software (version 5.1.7.3, Wyatt Technology, Santa Barbara, Calif., USA). Circular dichroism (CD) measurements were carried out on a JASCO J-815 CD spectrometer. The polymer samples were prepared at concentrations of 4.4 μM. The solution was placed in a quartz cell with a path length of 0.10 cm. The zeta-potential of polypeptides was evaluated by Malvern Zetasizer. Infrared spectra were recorded on a Perkin Elmer 100 serial FTIR spectrophotometer calibrated with polystyrene film. Lyophilization was performed on a FreeZonelyophilizer (Labconco, Kansas City, Mo., USA). UV light was generated from an OmiCure S1000 UV lamp (EXFO, Mississauga, Canada).

[2] = tested on: H. pylori SS1; experiment: H. pylori killing kinetics at various pHs (CFU counting, 1 h); assay type: cell-based, Helicobacter pylori
Protocol: H. pylori killing kinetics at various pHs. The killing kinetics of polypeptides were measured against H. pylori by counting the colony forming units (CFU) of alive bacteria with agar plating. The polypeptides at various concentrations were dissolved in the Tris-HC buffer at various pHs (pH 7.4, 4.0, 3.0). H. pylori were then collected and dispersed in the BB medium supplied with fresh urea (10 mM) and 10% FBS at different pHs (pH 7.4, 4.0, 3.0). The optical density at 600 nm of the bacteria were fixed at 0.1. The bacteria were then incubated with the polypeptides solution at corresponding pH in the incubator supplied with 10% CO2 at 37° C. Samples were taken for a series of ten-fold dilutions, and plated out in BB agar plates with 10% FBS and vancomycin (pH 7.4) after 1 h incubation. The plates were incubated for 72 h in the incubator and the bacteria were counted for CFU. Bacteria incubated with Tris-HCl buffer only at corresponding pH were served as 100% survival. Survival rate (%)=CFU of bacteria treated with polypeptides/CFU of bacteria treated with buffer×100%. The killing kinetics of antibiotics (OAC, omeprazole, amoxicillin, clarithromycin) against H. pylori were determined with a similar procedure. The antibiotics at various concentrations were dissolved in the Tris-HCl buffer at pH 7.4, or 3.0, and were then incubated with H. pylori in BB medium supplied with fresh urea (10 mM) and 10% FBS at corresponding pH in the incubator. After 1 h incubation, the bacteria were collected by centrifuge at 10,000 rcf for 5 min and washed with fresh BB medium. Samples were then taken for a series of ten-fold dilutions, and plated out in BB agar plates with 10% FBS and vancomycin. The plates were incubated for 72 h in the incubator and the bacteria were counted for CFU.

[3] = Liposome dye leakage assay (ANTS/DPX efflux)
Protocol: Liposome dye leakage assay. ANTS (12.5 mM) and DPX (45 mM) were dissolved in Tris buffer (pH=7.4). To a clean round-bottom flask, appropriate volumes of lipid stocks were added to make up 1 mL of CHCl3 (3:1 POPE (1-palmitoyl-2-oleoyl-sn-glycero-3-phosphoethanolamine)/POPG (1-palmitoyl-2-oleoyl-sn-glycero-3-phospho-(1′-rac-glycerol) (sodium salt)) vesicles, POPE (130 μL, 25 mg/mL CHCl3) and POPG (115 μL, 10 mg/mL CHCl3) were used). The solvent was removed by a stream of nitrogen gas to obtain a thin lipid film, which was then hydrated by 1 mL of ANTS/DPX solution. The mixture was left to hydrate for 1 h, after which it was subjected to 10 freeze-thaw cycles (using dry ice/acetone to freeze and warm water to thaw). The suspension was extruded 20 times through a polycarbonate membrane with 400 nm pore diameter. The excess dye was removed using Sephadex G-50 column as the eluent. The dye-filled vesicle fractions were diluted 200 times with Tris buffer. This suspension (90 μL) was subsequently mixed with polypeptide stock solutions (10 μL) at various pH (pH 7.4 or 4.0) on a 96-well black microplate (Greiner, flat bottom). Tris buffer (10 μL, pH 7.4 or 4.0) and Triton-X (0.1% v/v, 10 μL, pH 7.4 or 4.0) were employed as the negative and positive controls at corresponding pH, respectively. After 30 min, the fluorescence intensity in each well was recorded using the microplate reader with excitation and emission wavelengths of 380 and 520 nm, respectively. The percentage of leaked […] dye in each well was determined as follows: leakage (%)=[(F−F0)/(FTX−F0)]×100%, where F is the fluorescence intensity recorded in the well, F0 is the intensity in the negative control well, and FTX is the intensity in the positive control well.

[4] = tested on: H. pylori SS1; experiment: SEM analysis of bacterial morphology; assay type: cell-based, Helicobacter pylori; details: 30 min
Protocol: SEM analysis. SS1 bacterial cells grown in BB with the supplement of 10% FBS under pH 7.4 or 4.0 with or without polypeptides (2.2 μM) treatment were performed using a similar protocol as killing kinetics measurements but with a 30 min incubation time. All the samples were collected into a microfuge tube and pelleted at 4000 rpm for 5 min, and then washed twice with phosphate-buffered saline. Subsequently, bacteria were fixed with paraformaldehyde solution (4%) for 1 h before proceeding, followed by washing with DI water. Dehydration was performed with a series of graded ethanol solution (10%, 25%, 50%, 75%, 95%, and 100%). The dehydrated samples were dried under vacuum overnight before being mounted on carbon tape and coated with gold-platinum for imaging using a Hitachi S-4700 High Solution SEM (Japan).

[5] = tested on: H. pylori SS1; experiment: MIC of antibiotics against SS1; assay type: cell-based; details: Helicobacter pylori
[6] = tested on: H. pylori SS1; experiment: Anti-H. pylori efficacy in vivo (infected C57BL/6J mice); design: species or system Helicobacter pylori; details: oral gavage once daily for 3 d, 2.6 μmol/kg
Protocol: Anti-H. pylori efficacy in vivo. […] For triple therapy, mice were first administered omeprazole (a proton pump inhibitor) through oral gavage at a dose of 400 μmol/kg, followed by a lag time of 30 min before administration of amoxicillin (68.0 μmol/kg) and clarithromycin (19.1 μmol/kg). PL2 and PDL2 in 5% (vol/vol) DMSO (both at 2.6 μmol/kg) were administered through oral gavage once daily for a consecutive 3 d. Water solution with 5% DMSO was served as negative control group. Forty-eight hours after the last administration, mice were killed and the stomach was removed from the abdominal cavity. The stomach was cut along the greater curvature, and the gastric content was removed and rinsed with PBS. The stomach sections were used for assessment of bacterial colonization. For bacterial colonization, a gastric tissue section was suspended in 1 mL PBS and homogenized for H. pylori recovery. The homogenate was serially diluted and spotted onto Columbia agar plate containing vancomycin (20 μg/mL), amphotericin (2 μg/mL), bacitracin (30 μg/mL) and nalidixic acid (10 μg/mL). The plates were then incubated at 37° C. under microaerobic conditions for 5 d, and bacterial colonies were enumerated and adjusted for dilutions.

[7] = tested on: clinical isolated H. pylori stains J99, J99A-7, J99A-9, J99A-11, J99C-8, J99D-1; experiment: Growth (OD600) of clinical isolated H. pylori strains with antibiotics; assay type: cell-based, Helicobacter pylori; details: pH 7.4, 10% CO2, 37° C.
Protocol: FIG. 8. (A) The survival rate of H. pylori after incubation with amoxicillin (273.7 μM) and clarithromycin (133.7 μM) under pH 7.4 or 3.0 for 1 h. […] Concentrations of omeprazole, amoxicillin, and clarithromycin in OAC1 are 20.0 μM, 6.8 μM, and 1.9 μM, respectively; in OAC2 are 40.0 μM, 13.6 μM, and 3.8 μM, respectively; in OAC3 are 80.0 μM, 27.2 μM, and 7.6 μM, respectively. (C) The antibacterial activity of omeprazole (O) and a combination of amoxicillin and clarithromycin (AC) against SS1 at pH 3.0. O1, O2, O3 represents the concentration of omeprazole at 20.0 μM, 40.0 μM, and 80.0 μM, respectively. AC1, AC2, AC3 represents the concentration of amoxicillin and clarithromycin at 6.8 μM and 1.9 μM, 13.6 μM and 3.8 μM, 27.2 μM and 7.6 μM, respectively. The antibiotics were incubated with H. pylori strains for 1 h. The antibacterial activity of amoxicillin (D) and clarithromycin (E) against clinical isolated H. pylori stains, J99, J99A-7, J99A-9, J99A-11, J99C-8, J99D-1. The bacteria were incubated with antibiotics under pH 7.4 in the 10% CO2 incubator (37° C.), and the optical density at 600 nm (OD600) of bacteria were analyzed to determine the growth of bacteria. […] (G) The antibacterial activity of omeprazole (0) and a combination of amoxicillin and clarithromycin (AC) against J99D-1 under pH 3.0.

Molecule	secondary structure (CD), dependence on pH [1]	bactericidal activity against SS1 ([2]; pH 3.0, 1 h incubation)	bactericidal activity against SS1 ([2]; pH 7.4, 1 h incubation)	dye leakage from anionic liposomes ([3]; pH 4.0)	dye leakage from anionic liposomes ([3]; pH 7.4)	bacterial membrane/morphology by SEM ([4]; pH 4.0, 2.2 μM)	bacterial membrane/morphology by SEM ([4]; pH 7.4, 2.2 μM)	bacteria killed ([2]; pH 7.4, 1 h incubation, 273.7 μM)	MIC [5]	decrease of bacterial burden in the stomach as compared with the control group [6]	bacteria killed ([2]; pH 7.4, 1 h incubation, 133.7 μM)	susceptibility of J99A-7, J99A-11, J99C-8 and J99D-1 (growth, OD600) [7]
(PHLG-MHH)20 [PL1]	stable helical conformation independent of pH change	killed H. pylori SS1	killed H. pylori SS1	notable dye leakage	notable dye leakage	membrane disruption	membrane disruption					
CC1(C)S[C@@H]2[C@H](NC(=O)[C@H](N)c3ccc(O)cc3)C(=O)N2[C@H]1C(=O)O [amoxicillin, reference compound]		no bactericidal activity						~40%	0.13 µM			
(PDLGA)20-r-(PHDLG-MHH)25 [PDL2]	pH-independent non-helical conformation	unappreciable bactericidal activity	unappreciable bactericidal activity	unappreciable dye leakage	unappreciable dye leakage	did not affect the morphology of bacteria	did not affect the morphology of bacteria			no significant decrease of bacterial burden		
CC[C@H]1OC(=O)[C@H](C)[C@@H](O[C@H]2C[C@@](C)(OC)[C@@H](O)[C@H](C)O2)[C@H](C)[C@@H](O[C@@H]2O[C@H](C)C[C@H](N(C)C)[C@H]2O)[C@](C)(OC)C[C@@H](C)C(=O)[C@H](C)[C@@H](O)[C@]1(C)O [clarithromycin, reference compound]		no bactericidal activity							0.07 µM		~60%	resistant
